Among the data in patent US6855730B2, “3-methylidenyl-2-indolinone modulators of protein kinase” (Sugen, Inc., priority 1998, dated 2005) are melting point and IC50 values, retold here.

For series [1], the target named is T1, chimeric receptor having the extra-cellular domain of EGF-R and the intra-cellular domain of Her2 (Homo sapiens, UniProt P04626).
T1 construct: fused on or other part: the same chimera
Kind of series: EGF-induced Her2-driven BrdU incorporation. Type of series: cell-based. Conditions: read-out: BrdU HER 2 driven IC50. As for the experimental part: The cellular/catalytic assays described herein are performed in an ELISA format. The general procedure is as follows: a compound is introduced to cells expressing the test kinase, either naturally or recombinantly, for a selected period of time after which, if the test kinase is a receptor, a ligand known to activate the receptor is added. The cells are lysed and the lysate is transferred to the wells of an ELISA plate previously coated with a specific antibody recognizing the substrate of the enzymatic phosphorylation reaction. Non-substrate components of the cell lysate are washed away and the amount of phosphorylation on the substrate is detected with an antibody specifically recognizing phosphotyrosine compared with control cells that were not contacted with a test compound. The cellular/biologic assays described herein measure the amount of DNA made in response to activation of a test kinase, which is a general measure of a proliferative response. The general procedure for this assay is as follows: a compound is introduced to cells expressing the test kinase, either naturally or recombinantly, for a selected period of time after which, if the test kinase is a receptor, a ligand known to activate the receptor is added. After incubation at least overnight, a DNA labeling reagent such as Bromodeoxyuridine (BrdU) or 3H-thymidine is added. The amount of labeled DNA is detected with either an anti-BrdU antibody or by measuring radioactivity and is compared to control cells not contacted with a test compound.
EGF-Induced Her2-Driven BrdU Incorporation
Protocol • (1) Cells-are seeded at 8000 cells/well in DMEM, 10% CS, 2mM Gln in a 96-well plate. Cells are incubated overnight at 37° C. in 5% CO2. • (2) After 24 hours, the cells are washed with PBS, and then are serum starved in serum free medium (0% CS DMEM with 0.1% BSA) for 24 hours. • (3) On day 3, ligand (EGF=2 nM, prepared in DMEM with 0.1% BSA) and test compounds are added to the cells simultaneously. The negative control wells receive serum free DMEM with 0.1% BSA only, the positive control cells receive the ligand (EGF) but no test compound. Test compounds are prepared in serum free DMEM with ligand in a 96 well plate, and serially diluted for 7 test concentrations. • (4) After 20 hours of ligand activation, diluted BrdU labeling reagent (1:100 in DMEM, 0.1% BSA) is added and the cells are incubated with BrdU (final concentration=10 μM) for 1.5 hours. • (5) After incubation with labeling reagent, the medium is removed by decanting and tapping the inverted plate on a paper towel. FixDenat solution is added (50 μl/well) and the plates are incubated at room temperature for 45 minutes on a plate shaker. • (6) The FixDenat solution is thoroughly removed by decanting and tapping the inverted plate on a paper towel. Milk is added (5% dehydrated milk in PBS, 200 μ/well) as a blocking solution and the plate is incubated for 30 minutes at room temperature on a plate shaker. • (7) The blocking solution is removed by decanting and the wells are washed once with PBS. Anti-BrdU-POD solution (1:100 dilution in PBS, 1% BSA) is added (100 μl/well) and the plate is incubated for 90 minutes at room temperature on a plate shaker. • (8) The antibody conjugate is thoroughly removed by decanting and rinsing the wells 5 times with PBS, and the plate is dried by inverting and tapping on a paper towel. • (9) TMB substrate solution is added (100 μl/well) and incubated for 20 minutes at room temperature on a plate shaker until color development is sufficient for photometric detection. • (10) The absorbance of the samples are measured at 410 nm (in “dual wavelength” mode with a filter reading at 490 nm, as a reference wavelength) on a Dynatech ELISA plate reader.
(Uptake of a labelled nucleoside into DNA is a usual measure of proliferation.)

T1 sequence (P04626 676-1255 limits assumed, change not shown): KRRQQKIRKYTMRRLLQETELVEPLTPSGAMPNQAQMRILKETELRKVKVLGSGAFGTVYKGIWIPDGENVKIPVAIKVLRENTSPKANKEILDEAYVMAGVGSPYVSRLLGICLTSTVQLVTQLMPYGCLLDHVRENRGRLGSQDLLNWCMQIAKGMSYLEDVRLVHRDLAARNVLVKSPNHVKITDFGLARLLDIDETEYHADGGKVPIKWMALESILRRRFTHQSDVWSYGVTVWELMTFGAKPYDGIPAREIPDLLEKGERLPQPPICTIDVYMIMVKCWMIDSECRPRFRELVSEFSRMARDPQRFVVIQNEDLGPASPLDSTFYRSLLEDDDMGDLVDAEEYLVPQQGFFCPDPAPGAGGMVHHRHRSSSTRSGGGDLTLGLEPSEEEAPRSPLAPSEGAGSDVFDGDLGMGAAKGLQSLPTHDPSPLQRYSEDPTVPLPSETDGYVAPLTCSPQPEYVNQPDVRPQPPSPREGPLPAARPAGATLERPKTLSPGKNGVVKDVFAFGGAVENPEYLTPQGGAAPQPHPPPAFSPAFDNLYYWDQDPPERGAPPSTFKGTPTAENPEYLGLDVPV

Broadly, the melting point is the temperature, or range, at which the solid turns liquid. Consider `COc1ccc2c(c1)NC(=O)/C2=C\c1[nH]c2c(c1CCC(=O)O)CCCC2` [Example 196, 3-[2-(6-Methoxy-2-oxo-1,2-dihydroindol-3-ylidenemethyl)-4,5,6,7-tetrahydro-1H-indol-3-yl]-propionic acid], for which the melting point was 263 to 266 °C.
As a reminder, the IC50 is the concentration that inhibits the measured activity by half. `COc1c(C(C)C)cc(/C=C2/C(=O)Nc3ccccc32)cc1C(C)C` [Example 1, 3-(3,5-Diisopropyl-4-methoxybenzylidene)-1,3-dihydroindol-2-one]: in series [1], the IC50 amounted to 8.7 µM.
